{"source": "ChEMBL document CHEMBL4610086", "about": "“N-Acylethanolamine Acid Amidase (NAAA): Structure, Function, and Inhibition” (J Med Chem, 2020)", "key": {"[1]": {"biological_target": "T1, N-acylethanolamine-hydrolyzing acid amidase (Homo sapiens, UniProt Q02083)", "T1 sequence (Q02083 whole entry)": "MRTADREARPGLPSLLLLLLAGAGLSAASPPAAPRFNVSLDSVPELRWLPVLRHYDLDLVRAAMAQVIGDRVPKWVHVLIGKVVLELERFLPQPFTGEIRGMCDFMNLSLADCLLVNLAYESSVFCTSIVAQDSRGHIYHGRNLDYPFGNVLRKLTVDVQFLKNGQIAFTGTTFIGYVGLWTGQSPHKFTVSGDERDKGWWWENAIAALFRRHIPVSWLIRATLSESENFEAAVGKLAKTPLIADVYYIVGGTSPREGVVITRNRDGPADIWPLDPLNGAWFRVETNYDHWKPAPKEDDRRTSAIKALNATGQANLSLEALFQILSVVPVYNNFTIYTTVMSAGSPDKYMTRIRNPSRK", "experiment": "Inhibition of human NAAA"}, "[2]": {"biological_target": "T1, N-acylethanolamine-hydrolyzing acid amidase", "experiment": "Inhibition of human NAAA expressed in HEK293 cell membranes using [3H]-N-palmitoylethanolamine as substrate after 30 mins by liquid scintillation counting assay"}, "[3]": {"experiment": "Blood brain barrier permeability in human", "format": "ADME", "conditions": "read-out: BPR"}, "[4]": {"biological_target": "T1, N-acylethanolamine-hydrolyzing acid amidase", "experiment": "Inhibition of NAAA (unknown origin)"}}}
{"smiles": "CCCCc1ccc(O[C@@H]2C[C@H]3CC[C@@H](C2)N3CS(=O)(=O)c2c(C)n[nH]c2C)cc1", "values": [{"measurement": "IC50", "setting": "[1]", "value": 0.023, "unit": "µM"}]}
{"smiles": "CCCCCCCCCCCCCCCC(=O)OC1CCCC1", "note": "[CYCLOPENTYL PALMITATE]", "values": [{"measurement": "IC50", "setting": "[2]", "value": "> 30", "unit": "µM"}]}
{"smiles": "CCS(=O)(=O)c1ccccc1C(=O)N1CCN(c2nc3ccc(F)cc3s2)C[C@@H]1C", "values": [{"measurement": "Kp", "setting": "[3]", "value": 0.2}]}
{"smiles": "O=C(CCc1ccc(-c2ccccc2)cc1)N1CCCC1", "values": [{"measurement": "IC50", "setting": "[4]", "value": 3.1, "unit": "µM"}]}
